PMC8770518, “Evolutionary alterations in gene expression and enzymatic activities of gibberellin 3-oxidase 1 in Oryza” (Communications Biology, 2022)

What was measured:
[1] = target: T1, OsGA3ox2 (Oryza sativa, UniProt Q9FU53); test: X-ray crystallography, […] A; type: binding; conditions: Fe(II) omitted, active site
T1 construct: gene GA3OX2; crystallised without Fe(II)

[2] = target: T2, GID1 (Oryza sativa, UniProt Q6L545); test: yeast two-hybrid GID1-SLR1 interaction (-His growth); type: cell-based; conditions: GA-dependent interaction with SLR1; GA 1e-10 to 1e-5 M
T2 construct: yeast two-hybrid fusions: GID1 bait in pGBKT7, SLR1 prey in pGADT7; with DELLA protein SLR1
T2 sequence (Q6L545 1-354): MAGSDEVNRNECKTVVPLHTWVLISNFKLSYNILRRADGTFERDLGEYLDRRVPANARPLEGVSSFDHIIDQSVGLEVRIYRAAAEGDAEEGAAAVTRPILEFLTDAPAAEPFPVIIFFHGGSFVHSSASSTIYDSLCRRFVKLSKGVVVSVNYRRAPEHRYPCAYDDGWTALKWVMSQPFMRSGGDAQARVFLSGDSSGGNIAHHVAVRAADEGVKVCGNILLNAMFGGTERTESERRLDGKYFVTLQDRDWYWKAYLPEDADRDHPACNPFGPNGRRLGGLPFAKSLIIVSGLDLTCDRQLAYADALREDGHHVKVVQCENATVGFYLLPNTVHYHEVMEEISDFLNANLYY
T2 sequence (Q7G7J6 1-625 partner): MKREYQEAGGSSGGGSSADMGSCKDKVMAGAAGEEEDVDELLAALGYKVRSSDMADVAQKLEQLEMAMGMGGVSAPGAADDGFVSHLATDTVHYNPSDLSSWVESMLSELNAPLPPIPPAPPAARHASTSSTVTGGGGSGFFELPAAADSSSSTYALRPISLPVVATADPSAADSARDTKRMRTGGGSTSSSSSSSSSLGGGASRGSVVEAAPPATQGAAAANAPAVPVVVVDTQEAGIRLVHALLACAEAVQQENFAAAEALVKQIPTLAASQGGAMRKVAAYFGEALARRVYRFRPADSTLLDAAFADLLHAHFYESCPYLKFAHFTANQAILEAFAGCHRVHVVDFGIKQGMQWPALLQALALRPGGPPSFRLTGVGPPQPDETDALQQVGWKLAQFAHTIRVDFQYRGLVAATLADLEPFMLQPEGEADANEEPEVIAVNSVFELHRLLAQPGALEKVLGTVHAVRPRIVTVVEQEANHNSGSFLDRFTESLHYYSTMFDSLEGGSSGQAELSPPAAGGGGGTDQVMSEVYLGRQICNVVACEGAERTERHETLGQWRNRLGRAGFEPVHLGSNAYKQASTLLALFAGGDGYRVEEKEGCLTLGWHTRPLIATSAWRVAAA

[3] = target: T3, OsGA3ox1 (Oryza sativa, UniProt Q6AT12); test: in vitro 3-oxidation, gas chromatography of products; type: biochemical; conditions: products GA4 and GA7
T3 construct: gene GA3OX1
T3 sequence (Q6AT12 whole entry): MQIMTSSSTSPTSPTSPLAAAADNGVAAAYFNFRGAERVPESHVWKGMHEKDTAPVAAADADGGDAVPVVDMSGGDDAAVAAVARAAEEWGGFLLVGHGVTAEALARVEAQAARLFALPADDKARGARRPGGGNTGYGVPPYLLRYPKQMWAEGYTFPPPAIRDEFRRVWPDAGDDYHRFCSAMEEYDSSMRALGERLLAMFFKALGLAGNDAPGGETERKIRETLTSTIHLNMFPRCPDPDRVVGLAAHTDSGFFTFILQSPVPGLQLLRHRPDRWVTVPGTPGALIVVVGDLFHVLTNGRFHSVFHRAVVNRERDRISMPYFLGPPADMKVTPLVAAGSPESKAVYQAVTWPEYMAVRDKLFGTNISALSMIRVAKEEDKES

[4] = target: T4, OsGA3ox1 (Oryza sativa, UniProt Q6AT12, F235Y); test: as above; type: biochemical; conditions: products GA4 and GA7
T4 construct: gene GA3OX1
T4 sequence (Q6AT12 1-384 F235Y): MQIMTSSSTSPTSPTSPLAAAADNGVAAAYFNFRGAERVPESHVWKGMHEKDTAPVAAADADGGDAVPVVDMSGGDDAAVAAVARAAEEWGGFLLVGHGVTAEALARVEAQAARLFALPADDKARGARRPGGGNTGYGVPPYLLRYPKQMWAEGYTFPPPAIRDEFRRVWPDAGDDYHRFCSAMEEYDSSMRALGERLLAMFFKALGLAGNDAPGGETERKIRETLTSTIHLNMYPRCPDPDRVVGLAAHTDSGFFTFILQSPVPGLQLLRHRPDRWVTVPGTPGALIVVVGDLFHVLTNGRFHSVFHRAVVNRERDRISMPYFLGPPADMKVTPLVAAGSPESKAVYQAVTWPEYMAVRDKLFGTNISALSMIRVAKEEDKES

T1 sequence (Q9FU53 whole entry): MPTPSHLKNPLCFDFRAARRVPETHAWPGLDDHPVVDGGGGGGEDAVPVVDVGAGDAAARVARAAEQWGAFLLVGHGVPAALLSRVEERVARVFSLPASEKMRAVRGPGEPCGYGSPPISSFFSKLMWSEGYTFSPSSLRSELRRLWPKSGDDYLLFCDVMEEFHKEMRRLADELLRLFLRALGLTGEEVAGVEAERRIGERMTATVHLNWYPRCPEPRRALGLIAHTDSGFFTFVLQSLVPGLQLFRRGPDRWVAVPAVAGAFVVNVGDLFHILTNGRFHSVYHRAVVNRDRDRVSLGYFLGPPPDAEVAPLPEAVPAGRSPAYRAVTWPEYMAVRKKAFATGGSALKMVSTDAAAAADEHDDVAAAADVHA

O=C(O)CCC(=O)C(=O)O [2-oxoglutarate]
X-ray crystallography, 1.9 A ([1]; complex with GA9, 10 mM 2-oxoglutarate, pH 7.0): structure of the OsGA3ox2 complex with (co-) substrates; GA9 and 2-oxoglutarate (2OG)

C=C1C[C@]23C[C@H]1CC[C@H]2[C@@]12CC[C@H](O)[C@@](C)(C(=O)O1)[C@H]2[C@@H]3C(=O)O [GA4]
yeast two-hybrid GID1-SLR1 interaction (-His growth) [2]: GA7 showed the highest efficiency among all GA ligands, followed by GA4

C=C1C[C@]23C[C@H]1CC[C@H]2[C@@]12C=C[C@H](O)[C@@](C)(C(=O)O1)[C@H]2[C@@H]3C(=O)O [GA7]
yeast two-hybrid GID1-SLR1 interaction (-His growth) [2]: GA7 showed the highest efficiency among all GA ligands, followed by GA4

C=C1C[C@]23C[C@H]1CC[C@H]2[C@@]12CCC[C@@](C)(C(=O)O1)[C@H]2[C@@H]3C(=O)O [GA9]
in vitro 3-oxidation, gas chromatography of products [3]: GA biosynthesis activities of recombinant OsGA3ox1 and OsGA3ox2 for GA9 as a substrate
in vitro 3-oxidation, gas chromatography of products [4]: The productivity of GA7 was lower in F235Y-OsGA3ox1 than that in OsGA3ox1
X-ray crystallography, 1.9 A ([1]; complex with 2-oxoglutarate, 0.5 mM GA9, pH 7.0): structure of the OsGA3ox2 complex with (co-) substrates; GA9 and 2-oxoglutarate (2OG)
